Our source for the inhibition in vivo and IC50 values is patent US5120752A, “Cyclopropyl derivative lipoxygenase inhibitors” (Abbott Laboratories, priority 1990, dated 1992).

One assay deals with leukotriene biosynthesis. Put plainly: Inhibition of leukotriene biosynthesis in vivo after oral administration, rat peritoneal anaphylaxis model. Conditions: 100 μmol/kg oral (gavage), 1 h before antigen challenge, read-out: % Inhibition of Leukotrienes at 100 μmol/kg oral dose. The method, then:
Inhibition of the biosynthesis of leukotrienes in vivo after oral administration of representative test compounds of this invention was determined using a rat peritoneal anaphylaxis model in a similar manner as that described by Young and coworkers (Young, P. R.; Dyer, R. D.; Carter, G. W. Fed. Proc., Fed. Am. Soc. Exp. Biol. 1985, 44, 1185). In this model rats were injected intraperitoneally (ip) with rabbit antibody to bovine serum albumin (BSA) and three hours later injected ip with BSA to induce an antgen-antibody response. Rats were sacrificed 15 minutes after this challenge and the peritoneal fluids were collected and analyzed for leukotriene levels. Test compounds were administered by gavage one hour prior to the antigen challenge. Percent inhibition values were determined by comparing the treatment group to the mean of the control group. The results of this assay, for representative compounds of the present invention, at an oral dose level of […] are presented in Table 2, and at an oral dose of […] in Table 3.

In assay [1] the test system is LTB4 biosynthesis in human whole blood. Put plainly: Inhibition of calcium ionophore-induced LTB4 biosynthesis in human whole blood. It is filed as cell-based. The conditions noted are these: A23187 50 μM, 15 min preincubation, read-out: Inhibition of Leukotriene Biosynthesis IC50. The method, then:
Inhibition of leukotriene biosynthesis was evaluated in an assay, involving calcium ionophore-induced LTB4 biosynthesis expressed by human whole blood. Heparinized (20 U/mL) human blood (0.3 mL) was preincubated with test compound or vehicle for 15 min. at 37° C. Eicosanoid biosynthesis was initiated by adding calcium ionophore (A23187) in DMSO to a final concentration of 50 μM and terminated after 30 min. by rapid cooling of the blood in an ice bath and centrifuging at 3° C. for 10 min at 2500×g. The plasma was mixed with 4 volumes of methanol and allowed to stand for at least 30 min. at 3° C. prior to centrifuging at 1800×g for 10 min. The level of LTB4 in aliquots of the methanol-plasma extract was analyzed by radio-immunoassay or enyme-immunoassay techniques.

As a reminder, the IC50 is the midpoint of a concentration-inhibition curve.

Turning to `NC(=O)N(O)C[C@@H]1C[C@H]1c1ccoc1` (relative stereo) [Example 193, N-(1-trans-(2-(3-furanyl)cyclopropyl)methyl)-N-hydroxyurea], in the assay with leukotriene biosynthesis, the inhibition in vivo at 100 µmol/kg is 93%. The IC50 in assay [1] amounted to 230 nM.

As to `NC(=O)N(O)C[C@@H]1C[C@H]1c1cccs1` (relative stereo) [Example 194, N-(1-trans-(2-(2-thienyl)cyclopropyl)methyl)-N-hydroxyurea], in the assay with leukotriene biosynthesis, the inhibition in vivo at 100 µmol/kg stood at 97%. For the same molecule, in assay [1], the IC50 was found to be 370 nM.

Consider `NC(=O)N(O)C[C@@H]1C[C@H]1c1ccco1` (relative stereo) [Example 198, N-(1-trans-(2-(2-furanyl)cyclopropyl)methyl)-N-hydroxyurea], for which the inhibition in vivo at 100 µmol/kg in the assay with leukotriene biosynthesis turned out to be 90%. In addition, the IC50 in assay [1] amounted to 970 nM.

On to `Cc1ccc(Oc2cccc([C@@H]3C[C@H]3C(C)N(O)C(N)=O)c2)cc1` (stereo partly drawn) [Example 180, N-(1-trans-(2-(3-(4-methylphenoxy)phenyl)cyclopropyl)ethyl)-N-hydroxyurea], for which the inhibition in vivo at 100 µmol/kg in the assay with leukotriene biosynthesis is 85%. The concentration for half-maximal inhibition (IC50) in assay [1] was 690 nM.

On to `CC([C@@H]1C[C@H]1c1ccsc1)N(O)C(N)=O` (stereo partly drawn) [Example 189, N-(1-trans-(2-(3-thienyl)cyclopropyl)ethyl)-N-hydroxyurea], for which the inhibition in vivo at 100 µmol/kg in the assay on leukotriene biosynthesis turned out to be 73%. Moreover, the IC50 in assay [1] came out at 680 nM.

Consider `CC([C@@H]1C[C@H]1c1ccoc1)N(O)C(N)=O` (stereo partly drawn) [Example 192, N-(1-trans-(2-(3-furanyl)cyclopropyl)ethyl)-N-hydroxyurea], for which the inhibition in vivo at 100 µmol/kg in the assay on leukotriene biosynthesis amounted to 71%. Further, the IC50 in assay [1] stood at 1200 nM.
